Experimental data published in paper PMC4501119, “Cholestenoic acid, an endogenous cholesterol metabolite, is a potent γ-secretase modulator” (Molecular Neurodegeneration, 2015).

Columns and labels:
[1] = test system: Aβ42 in CHO-2B7 cells (CHO cells stably overexpressing APP695); assay: Cell-based Aβ sandwich ELISA of conditioned media from CHO-2B7 cells treated 16 h; set-up: species or system Chinese hamster
Protocol: Chinese hamster ovary (CHO) cells stably overexpressing APP695 (CHO-2B7 cells) were grown in Ham’s F-12 medium (Life Technologies) supplemented with 10 % fetal bovine serum and 100 units/ml of penicillin and 100 μg/ml streptomycin. Cells were grown at 37 °C in a humidified atmosphere containing 5 % CO2 in tissue culture plates (Costar). The cells were harvested at confluence and then utilized for biochemical analyses. Compounds were dissolved in dimethyl sulfoxide (DMSO) and screened in CHO-2B7 cells. The cells were incubated for 16 h in the presence of the compound diluted into OptiMEM-reduced serum medium (Life Technologies, Carlsbad, CA, USA) containing 1 % fetal bovine serum.
Monoclonal antibodies to Aβ were generated by the Mayo Clinic Immunology Core facilities (Jacksonville, FL, USA). Ab5 recognizes an epitope in the amino terminus of Aβ (Aβ1-16), recognizes both monomeric and aggregated Aβ, and is human specific. […] Ab 2.1.3 was raised against Aβ35-42 and is specific for Aβx-42. […] Total Aβ level was determined by capture with Ab5 and detected with horseradish peroxidase (HRP)-conjugated 4G8 (a monoclonal antibody against Aβ17-24; Covance, Waltham, MA, USA) with the other Aβ peptides detected with HRP-conjugated Ab5. For the cell-free assay and measuring mouse endogenous Aβ, HRP-conjugated 4G8 was used as the secondary detection antibody. Aβ standards (Bachem, King of Prussia, PA, USA) were prepared by dissolving in hexafluoroisopropanol (HFIP) at 1 mg/ml with sonication, dried under nitrogen, resuspended at 2 mg/ml HFIP, sonicated again and dried under nitrogen. The resulting Aβ was resuspended in 0.01 % ammonium hydroxide, portioned into aliquots in EC buffer, and frozen at −80 °C.

[2] = set-up: method as in PMID 10428977; settings: in humans; cited from earlier work
[3] = CHO-2B7 cells, dose response, ELISA

Q: What does the source list for `CC(CCC[C@@H](C)C(=O)O)[C@H]1CCC2C3CC=C4C[C@@H](O)CC[C@]4(C)C3CC[C@@]21C` (stereo partly drawn) [Cmpd 2a, 25(R)-cholestenoic acid]?
A: Aβ38 level [1, 3]: increased; total Aβ level [1, 3]: without alterations; EC50 ([1]; Cricetulus griseus, CHO-2B7, 16 h, lowering Aβ42, CHO-2B7 cells, 16 h, ELISA): ~250 nM; EC90 ([1]; Cricetulus griseus, decreasing Aβ42, CHO-2B7 cells): 3000 nM; half-life (T1/2) [2]: 1.5 h
